According to article PMC11013491, “Triterpenoids from the Leaves of Diospyros digyna and Their PTP1B Inhibitory Activity” (Molecules, 2024):

Biological target: T1, PTP1B (Homo sapiens, UniProt P18031)
T1 construct: purchased Abcam, Cambridge, UK
T1 sequence (P18031 1-435): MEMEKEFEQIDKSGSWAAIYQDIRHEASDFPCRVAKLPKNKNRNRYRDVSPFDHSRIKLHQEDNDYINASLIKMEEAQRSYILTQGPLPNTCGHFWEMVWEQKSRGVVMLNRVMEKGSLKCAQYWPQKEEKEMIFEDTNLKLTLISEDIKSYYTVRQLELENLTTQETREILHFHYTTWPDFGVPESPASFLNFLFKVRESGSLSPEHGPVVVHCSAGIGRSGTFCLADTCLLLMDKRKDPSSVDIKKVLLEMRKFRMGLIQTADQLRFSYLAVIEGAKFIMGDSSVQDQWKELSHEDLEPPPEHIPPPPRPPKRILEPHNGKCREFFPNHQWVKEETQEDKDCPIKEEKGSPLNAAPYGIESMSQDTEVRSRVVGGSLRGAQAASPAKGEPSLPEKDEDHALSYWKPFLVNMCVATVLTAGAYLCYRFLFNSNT
Experiment: PTP1B inhibition assay (pNPP substrate)
Type: biochemical
Details: human recombinant PTP1B, 37 °C, 30 min, triplicate, means ± SD, read-out: PTP1B inhibitory activity IC50
Description: The inhibitory activity of the isolated compounds against PTP1B (Abcam, Cambridge, UK, human recombinant) was assayed according to the method reported previously. The reagent p-nitrophenyl phosphate (pNPP) was used as the substrate, and oleanolic acid was used as the positive control. In brief, a 100 μL assay mixture containing 1 μg/mL PTP1B, samples, 4 mM pNPP, 55 mM NaCl, 2.2 mM DTT, 1.1 mM EDTA, and […] in 11 mM Tris-HCl, pH 7.5, was incubated at 37 °C for 30 min in a 96-well plate. The absorbance of 405 nm was measured by a microplate reader. Data were analyzed by GraphPad Prism v.10.2.0 software. All data were obtained in triplicate and presented as means ± SD.

Compound	IC50 [µM]
C=C1CC[C@]2(C(=O)O)CC[C@]3(C)C(=CC[C@@H]4[C@@]5(C)C[C@@H](O)[C@@H](OC(=O)/C=C/c6ccc(O)c(OC)c6)C(C)(C)[C@@H]5CC[C@]43C)[C@@H]2[C@H]1C [Compound 6, 3α-trans-feruloyloxy-2α-hydroxy-12,20(30)-ursadien-28-oic acid]	34 ± 4.88
C[C@H]1[C@H](C)CC[C@]2(C(=O)O)CC[C@]3(C)C(=CC[C@@H]4[C@@]5(C)C[C@@H](O)[C@H](OC(=O)/C=C/c6ccc(O)cc6)C(C)(C)[C@@H]5CC[C@]43C)[C@H]12 [Compound 11, jacoumaric acid]	26.2 ± 1.31
C=C1CCC2(C(=O)O)CCC3(C)C(=CCC4C5(C)CC(O)C(OC(=O)C=Cc6ccc(O)cc6)C(C)(C)C5CCC43C)C2C1C (stereo not drawn) [Compound 4, 3β-trans-p-coumaroyloxy-2α-hydroxy-12,20(30)-ursadien-28-oic acid]	48.7 ± 5.17
C=C1CCC2(C(=O)O)CCC3(C)C(=CCC4C5(C)CC(O)C(OC(=O)C=Cc6ccc(O)c(OC)c6)C(C)(C)C5CCC43C)C2C1C (stereo not drawn) [Compound 5, 3β-trans-feruloyloxy-2α-hydroxy-12,20(30)-ursadien-28-oic acid]	23.7 ± 0.73
C[C@H]1[C@H](C)CC[C@]2(C(=O)O)CC[C@]3(C)C(=CC[C@@H]4[C@@]5(C)C[C@@H](O)[C@H](OC(=O)/C=C\c6ccc(O)cc6)C(C)(C)[C@@H]5CC[C@]43C)[C@H]12 [Compound 10, 3β-O-cis-p-coumaroyl-2α-hydroxy-urs-12-en-28-oic acid]	19.2 ± 0.22

Results, then the compound that gave them:

IC50 [µM]	Compound
10.3 ± 1.21	COc1cc(/C=C/C(=O)O[C@H]2[C@H](O)C[C@]3(C)[C@H]4CC=C5[C@@H]6[C@@H](C)[C@H](C)CC[C@]6(C(=O)O)CC[C@@]5(C)[C@]4(C)CC[C@H]3C2(C)C)ccc1O [Compound 13, 3β-O-trans-feruloyl-2α-hydroxy-urs-12-en-28-oic acid]
16.2 ± 0.57	COc1cc(/C=C\C(=O)O[C@H]2[C@H](O)C[C@]3(C)[C@H]4CC=C5[C@@H]6[C@@H](C)[C@H](C)CC[C@]6(C(=O)O)CC[C@@]5(C)[C@]4(C)CC[C@H]3C2(C)C)ccc1O [Compound 12, 3β-O-cis-feruloyl-2α-hydroxy-urs-12-en-28-oic acid]
17.1 ± 1.67	C=C1CC[C@]2(C(=O)O)CC[C@]3(C)C(=CC[C@@H]4[C@@]5(C)C[C@@H](O)[C@@H](OC(=O)/C=C/c6ccc(O)cc6)C(C)(C)[C@@H]5CC[C@]43C)[C@@H]2[C@H]1C [Compound 15, 3α-trans-coumaroyloxy-2α-hydroxy-12,20(30)-dien-28-ursolic acid]
